± gives the expanded uncertainty stated by the source.
Experiment: activity coefficient (dimensionless); of the first substance listed, at infinite dilution; xn = mol fraction of the nth substance listed
Conditions: Liquid, Chromatography, x1 = 0

Structure (SMILES)	activity coefficient (303.15 K)	activity coefficient (313.15 K)	activity coefficient (323.15 K)	activity coefficient (333.15 K)	activity coefficient (343.15 K)	activity coefficient (353.15 K)	activity coefficient (363.15 K)	activity coefficient (303.15 K, 101 kPa)	activity coefficient (313.15 K, 101 kPa)	activity coefficient (323.15 K, 101 kPa)	activity coefficient (333.15 K, 101 kPa)	activity coefficient (343.15 K, 101 kPa)	activity coefficient (353.15 K, 101 kPa)	activity coefficient (363.15 K, 101 kPa)
Cc1ccccc1 [toluene] + CCCCCCCCn1cc[n+](C)c1.O=[N+]([O-])[O-]	1.41 ± 0.1	1.41 ± 0.1	1.42 ± 0.1	1.43 ± 0.1	1.44 ± 0.1	1.45 ± 0.1	1.46 ± 0.1	–	–	–	–	–	–	–
CCO [ethanol] + CCCCCCCCn1cc[n+](C)c1.O=[N+]([O-])[O-]	0.38 ± 0.09	0.37 ± 0.09	0.35 ± 0.09	0.34 ± 0.09	0.33 ± 0.09	0.31 ± 0.09	0.3 ± 0.09	–	–	–	–	–	–	–
CCc1ccccc1 [ethylbenzene] + CCCCCCCCn1cc[n+](C)c1.O=[N+]([O-])[O-]	–	–	–	–	–	–	–	2.05 ± 0.11	2.06 ± 0.11	2.06 ± 0.11	2.07 ± 0.11	2.07 ± 0.11	2.08 ± 0.11	2.09 ± 0.11
CC#N [acetonitrile] + CCCCCCCCn1cc[n+](C)c1.O=[N+]([O-])[O-]	0.6 ± 0.09	0.59 ± 0.09	0.58 ± 0.09	0.57 ± 0.09	0.56 ± 0.09	0.55 ± 0.09	0.54 ± 0.09	–	–	–	–	–	–	–
c1ccccc1 [benzene] + CCCCCCCCn1cc[n+](C)c1.O=[N+]([O-])[O-]	0.94 ± 0.09	0.96 ± 0.09	0.97 ± 0.09	0.98 ± 0.09	0.99 ± 0.09	1 ± 0.09	1.01 ± 0.09	–	–	–	–	–	–	–
CC(C)O [propan-2-ol] + CCCCCCCCn1cc[n+](C)c1.O=[N+]([O-])[O-]	0.44 ± 0.09	0.43 ± 0.09	0.43 ± 0.09	0.42 ± 0.09	0.41 ± 0.09	0.41 ± 0.09	0.4 ± 0.09	–	–	–	–	–	–	–
CCCCC [pentane] + CCCCCCCCn1cc[n+](C)c1.O=[N+]([O-])[O-]	8.5 ± 0.3	7.8 ± 0.28	7.45 ± 0.26	6.94 ± 0.25	6.46 ± 0.23	6.19 ± 0.22	5.77 ± 0.21	–	–	–	–	–	–	–
CC1CCCCC1 [methylcyclohexane] + CCCCCCCCn1cc[n+](C)c1.O=[N+]([O-])[O-]	7.91 ± 0.28	7.7 ± 0.27	7.37 ± 0.26	7.11 ± 0.25	6.81 ± 0.24	6.62 ± 0.23	6.41 ± 0.23	–	–	–	–	–	–	–
CCCCCCCCC [nonane] + CCCCCCCCn1cc[n+](C)c1.O=[N+]([O-])[O-]	23.1 ± 0.83	21.8 ± 0.78	20.9 ± 0.75	20.1 ± 0.72	19.6 ± 0.7	18.6 ± 0.67	18.2 ± 0.65	–	–	–	–	–	–	–
CO [methanol] + CCCCCCCCn1cc[n+](C)c1.O=[N+]([O-])[O-]	0.26 ± 0.09	0.26 ± 0.09	0.25 ± 0.09	0.24 ± 0.09	0.23 ± 0.09	0.23 ± 0.09	0.22 ± 0.09	–	–	–	–	–	–	–
Cc1ccc(C)cc1 [1,4-dimethylbenzene] + CCCCCCCCn1cc[n+](C)c1.O=[N+]([O-])[O-]	1.98 ± 0.11	1.99 ± 0.11	2 ± 0.11	2.01 ± 0.11	2.01 ± 0.11	2.02 ± 0.11	2.03 ± 0.11	–	–	–	–	–	–	–
ClC(Cl)(Cl)Cl [tetrachloromethane] + CCCCCCCCn1cc[n+](C)c1.O=[N+]([O-])[O-]	1.16 ± 0.09	1.2 ± 0.09	1.24 ± 0.09	1.27 ± 0.1	1.3 ± 0.1	1.35 ± 0.1	1.39 ± 0.1	–	–	–	–	–	–	–
ClCCl [dichloromethane] + CCCCCCCCn1cc[n+](C)c1.O=[N+]([O-])[O-]	0.32 ± 0.09	0.33 ± 0.09	0.34 ± 0.09	0.36 ± 0.09	0.37 ± 0.09	0.38 ± 0.09	0.39 ± 0.09	–	–	–	–	–	–	–
CCCO [propan-1-ol] + CCCCCCCCn1cc[n+](C)c1.O=[N+]([O-])[O-]	–	0.41 ± 0.09	0.4 ± 0.09	0.38 ± 0.09	0.37 ± 0.09	0.36 ± 0.09	0.35 ± 0.09	–	–	–	–	–	–	–
C1CCOC1 [tetrahydrofuran] + CCCCCCCCn1cc[n+](C)c1.O=[N+]([O-])[O-]	1.03 ± 0.09	1.02 ± 0.09	1.01 ± 0.09	1 ± 0.09	0.99 ± 0.09	0.98 ± 0.09	0.97 ± 0.09	–	–	–	–	–	–	–
Cc1ccccc1C [1,2-dimethylbenzene] + CCCCCCCCn1cc[n+](C)c1.O=[N+]([O-])[O-]	1.75 ± 0.1	1.77 ± 0.1	1.79 ± 0.11	1.8 ± 0.11	1.82 ± 0.11	1.84 ± 0.11	1.85 ± 0.11	–	–	–	–	–	–	–
Cc1cccc(C)c1 [1,3-dimethylbenzene] + CCCCCCCCn1cc[n+](C)c1.O=[N+]([O-])[O-]	2.02 ± 0.11	2.03 ± 0.11	2.05 ± 0.11	2.06 ± 0.11	2.07 ± 0.11	2.08 ± 0.11	2.09 ± 0.11	–	–	–	–	–	–	–
ClC(Cl)Cl [trichloromethane] + CCCCCCCCn1cc[n+](C)c1.O=[N+]([O-])[O-]	0.17	0.18	0.19 ± 0.09	0.2 ± 0.09	0.21 ± 0.09	0.22 ± 0.09	0.23 ± 0.09	–	–	–	–	–	–	–
C1CCCCC1 [cyclohexane] + CCCCCCCCn1cc[n+](C)c1.O=[N+]([O-])[O-]	6.52 ± 0.23	6.27 ± 0.22	5.89 ± 0.21	5.58 ± 0.2	5.27 ± 0.19	5.09 ± 0.19	4.93 ± 0.18	–	–	–	–	–	–	–
CCCCCCCC [octane] + CCCCCCCCn1cc[n+](C)c1.O=[N+]([O-])[O-]	17.9 ± 0.64	17 ± 0.61	16.2 ± 0.58	15.7 ± 0.56	15.2 ± 0.54	14.8 ± 0.53	14.1 ± 0.5	–	–	–	–	–	–	–
CC(C)CC(C)(C)C [2,2,4-trimethylpentane] + CCCCCCCCn1cc[n+](C)c1.O=[N+]([O-])[O-]	18.5 ± 0.66	16.8 ± 0.6	15.4 ± 0.55	14.1 ± 0.51	13.3 ± 0.48	12.3 ± 0.44	11.4 ± 0.41	–	–	–	–	–	–	–
CCOC(C)=O [ethyl acetate] + CCCCCCCCn1cc[n+](C)c1.O=[N+]([O-])[O-]	1.65 ± 0.1	1.64 ± 0.1	1.63 ± 0.1	1.63 ± 0.1	1.62 ± 0.1	1.61 ± 0.1	1.6 ± 0.1	–	–	–	–	–	–	–
CCCCCCC [heptane] + CCCCCCCCn1cc[n+](C)c1.O=[N+]([O-])[O-]	15.4 ± 0.55	14.3 ± 0.51	13.3 ± 0.48	12.3 ± 0.44	11.8 ± 0.42	11.2 ± 0.4	10.4 ± 0.37	–	–	–	–	–	–	–
CCCCCC [hexane] + CCCCCCCCn1cc[n+](C)c1.O=[N+]([O-])[O-]	12.1 ± 0.43	11.2 ± 0.4	10.5 ± 0.37	9.74 ± 0.35	9.05 ± 0.32	8.5 ± 0.3	8.16 ± 0.29	–	–	–	–	–	–	–
CC(C)=O [acetone] + CCCCCCCCn1cc[n+](C)c1.O=[N+]([O-])[O-]	0.84 ± 0.09	0.83 ± 0.09	0.81 ± 0.09	0.79 ± 0.09	0.77 ± 0.09	0.76 ± 0.09	0.74 ± 0.09	–	–	–	–	–	–	–

Reference: the NIST ThermoML archive (doi:10.1016/j.fluid.2012.05.006)
